Results reported in US6872805B2 (Bristol-Myers Squibb Company, priority 2000, dated 2005).

Columns and labels:
NS3/4A H77C strain = target: T1, NS3/4A H77C strain (Hepatitis C virus genotype 1a, UniProt P27958, C1454S); assay: Recombinant HCV NS3/4A protease complex FRET peptide assay, H77C strain; assay type: biochemical, HCV genotype 1a
T1 construct: DNA encoding the recombinant HCV NS3/4A protease complex (amino acid 1027 to 1711) for these strains; inferred from pET21b vector and Ni-NTA purification; made in house; host or cells: E. coli BL21 (DE3)
Excerpt: (§1) The purpose of this in vitro assay was to measure the inhibition of HCV NS3 protease complexes, derived from the BMS, H77C or J416S strains, as described below, by compounds of the present invention. This assay provides an indication of how effective compounds of the present invention would be in inhibiting HCV […] proteolytic activity.
(§2) Serum from an HCV-infected patient was obtained from Dr. T. Wright, San Francisco Hospital. An engineered full-length cDNA template of the HCV genome (BMS strain) was constructed from DNA fragments obtained by reverse transcription-PCR (RT-PCR) of serum RNA and using primers selected on the basis of homology between other genotype 1a strains. From the determination of the entire genome sequence, a genotype 1a was assigned to the HCV isolate according to the classification of Simmonds et al. (See P Simmonds, K A Rose, S Graham, S W Chan, F McOmish, B C Dow, E A Follett, P L Yap and H Marsden, J. Clin. Microbiol., 31(6), 1493-1503 (1993)). […] The infectious clones, H77C (1a genotype) and J4L6S (1b genotype) were obtained from R. Purcell (NIH) and the sequences are published in genebank (AAB67036, see Yanagi, M., Purcell, R. H., Emerson, S. U. and Bukh, J. Proc. Natl. Acad. Sci. U.S.A. 94(16),8738-8743 (1997); AF054247, see Yanagi, M., St Claire, M., Shapiro, M., Emerson, S. U., Purcell, R. H. and Bukh, J, Virology 244 (1), 161-172. (1998)). […]

[1] = target: T2, bovine pancreatic α-chymotrypsin (Bos taurus, UniProt P00766); assay: Specificity assay, bovine pancreatic α-chymotrypsin; assay type: biochemical
T2 construct: from tissue; host or cells: pancreas (from the enzyme's name only)
Procedure: The specificities of compounds of the present invention were determined against a variety of serine proteases: human leukocyte elastase, porcine pancreatic elastase and bovine pancreatic α-chymotrypsin and one cysteine protease: human liver cathepsin B. In all cases a 96-well plate format protocol using calorimetric […] (pNA) substrate specific for each enzyme was used as described previously (Patent WO 00/09543) with some modifications.
Each assay included a 1 h enzyme-inhibitor pre-incubation at RT followed by addition of substrate and hydrolysis to ˜30% conversion as measured on a Spectramax Pro microplate reader. Compound concentrations varied from 100 to 0.4 μM depending on their potency.
The final conditions and protocol for each assay was as reported previously (Patent WO 00/09543) with the inclusion of an additional assay: • 50 mM Tris-HCl pH 8, 0.5M Na2SO4, 50 mM NaCl, 0.1 mM EDTA, 3% DMSO, 0.01% Tween-20 with 133 μM succ-AAA-PNA and 20 nM Elastase
The percentage of inhibition was calculated using the formula: [1−((UVinh−UVblank)/(UVctl−UVblank))]×100

NS3/4A J4L6S strain = target: T3, NS3/4A J4L6S strain (Hepatitis C virus genotype 1b, UniProt O92972, C1454S/C1711G); assay: Recombinant HCV NS3/4A protease complex FRET peptide assay, J4L6S strain; assay type: biochemical, HCV genotype 1b
T3 construct: DNA encoding the recombinant HCV NS3/4A protease complex (amino acid 1027 to 1711) for these strains; inferred from pET21b vector and Ni-NTA purification; made in house; host or cells: E. coli BL21 (DE3)
Excerpt: as §1, §2

NS3/4A BMS strain = NS3/4A BMS strain (Hepatitis C virus genotype 1a, UniProt P27958, C1454S/C1711G); assay: Recombinant HCV NS3/4A protease complex FRET peptide assay, BMS strain; assay type: biochemical, HCV genotype 1a; details: enzyme assay
Excerpt: as §1, §2

T1 sequence (P27958 1027-1657 C1454S): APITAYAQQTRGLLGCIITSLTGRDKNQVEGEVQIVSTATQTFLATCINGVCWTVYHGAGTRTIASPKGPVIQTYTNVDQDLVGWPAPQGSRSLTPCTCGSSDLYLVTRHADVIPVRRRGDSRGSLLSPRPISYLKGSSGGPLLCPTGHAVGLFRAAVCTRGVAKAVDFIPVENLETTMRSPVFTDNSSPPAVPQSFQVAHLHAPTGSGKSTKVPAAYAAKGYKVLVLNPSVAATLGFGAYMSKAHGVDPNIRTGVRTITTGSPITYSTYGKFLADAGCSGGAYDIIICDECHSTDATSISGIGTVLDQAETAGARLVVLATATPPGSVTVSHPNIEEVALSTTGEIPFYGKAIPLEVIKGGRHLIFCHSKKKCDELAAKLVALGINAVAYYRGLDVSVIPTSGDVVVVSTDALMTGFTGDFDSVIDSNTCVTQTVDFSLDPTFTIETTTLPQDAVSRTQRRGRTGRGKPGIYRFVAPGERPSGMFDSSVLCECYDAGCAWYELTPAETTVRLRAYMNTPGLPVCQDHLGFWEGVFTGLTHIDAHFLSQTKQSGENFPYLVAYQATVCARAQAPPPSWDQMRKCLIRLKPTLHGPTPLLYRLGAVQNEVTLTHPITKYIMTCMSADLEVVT
T1 sequence (P27958 1658-1711 partner, looked up, stated change not applied): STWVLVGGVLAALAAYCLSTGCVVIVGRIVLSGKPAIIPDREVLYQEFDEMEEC
Chain of NS3/4A BMS strain (P27958 1027-1711, stated change not applied): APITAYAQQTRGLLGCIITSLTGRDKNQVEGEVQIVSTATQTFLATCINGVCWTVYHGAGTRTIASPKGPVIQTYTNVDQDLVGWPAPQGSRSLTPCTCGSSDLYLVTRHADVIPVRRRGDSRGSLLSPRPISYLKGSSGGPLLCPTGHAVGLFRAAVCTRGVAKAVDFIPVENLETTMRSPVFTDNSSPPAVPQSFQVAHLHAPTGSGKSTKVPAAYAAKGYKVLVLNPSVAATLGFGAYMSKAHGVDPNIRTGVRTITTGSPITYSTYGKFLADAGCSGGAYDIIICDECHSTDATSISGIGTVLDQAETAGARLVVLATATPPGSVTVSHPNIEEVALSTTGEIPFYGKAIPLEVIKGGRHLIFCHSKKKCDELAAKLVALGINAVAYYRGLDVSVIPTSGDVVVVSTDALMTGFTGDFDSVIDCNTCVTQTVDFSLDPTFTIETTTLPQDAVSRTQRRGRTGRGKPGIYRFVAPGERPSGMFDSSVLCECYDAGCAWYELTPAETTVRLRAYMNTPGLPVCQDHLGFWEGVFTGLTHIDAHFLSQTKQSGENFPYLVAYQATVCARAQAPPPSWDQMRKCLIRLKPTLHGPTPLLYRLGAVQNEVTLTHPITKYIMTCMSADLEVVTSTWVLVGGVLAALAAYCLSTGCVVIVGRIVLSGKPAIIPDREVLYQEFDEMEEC
Chain of NS3/4A BMS strain (P27958 1027-1711, stated change not applied): as above
T3 sequence (O92972 1027-1711 C1454S/C1711G): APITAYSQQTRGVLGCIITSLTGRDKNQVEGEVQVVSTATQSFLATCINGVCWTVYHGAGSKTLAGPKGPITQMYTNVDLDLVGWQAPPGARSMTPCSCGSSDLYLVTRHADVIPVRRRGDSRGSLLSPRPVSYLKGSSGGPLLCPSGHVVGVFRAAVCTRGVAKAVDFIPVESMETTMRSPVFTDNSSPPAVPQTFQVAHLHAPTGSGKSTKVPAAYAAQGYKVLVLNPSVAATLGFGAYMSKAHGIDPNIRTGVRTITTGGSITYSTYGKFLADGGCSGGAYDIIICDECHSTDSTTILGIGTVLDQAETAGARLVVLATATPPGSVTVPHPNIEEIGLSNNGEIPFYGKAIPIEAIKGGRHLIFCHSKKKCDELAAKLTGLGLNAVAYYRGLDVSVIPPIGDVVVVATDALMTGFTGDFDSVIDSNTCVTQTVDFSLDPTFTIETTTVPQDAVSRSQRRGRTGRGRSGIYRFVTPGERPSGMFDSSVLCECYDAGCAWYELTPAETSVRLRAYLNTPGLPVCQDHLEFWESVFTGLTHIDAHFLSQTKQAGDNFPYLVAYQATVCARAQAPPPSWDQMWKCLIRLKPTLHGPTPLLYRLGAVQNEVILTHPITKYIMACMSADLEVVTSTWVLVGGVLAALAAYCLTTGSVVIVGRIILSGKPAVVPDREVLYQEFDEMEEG

## C=CC1C[C@]1(NC(=O)[C@@H]1C[C@@H](Oc2cc(-c3ccccc3)nc3cc(OC)ccc23)CN1C(=O)C(NC(=O)OC(C)(C)C)C(C)(C)C)C(=O)NS(=O)(=O)c1ccc(NC(C)=O)cc1 (stereo partly shown) [Compound 58]
NS3/4A H77C strain
  IC50: 10 nM
[1]
  IC50: > 100000 nM
NS3/4A J4L6S strain
  IC50: 8 nM
NS3/4A BMS strain
  IC50: 17 nM
